# Tested on: HepG2 cells
# Assay: RNA-seq transcriptome analysis of differentially expressed genes
# Assay type: cell-based, human
# Details: BCP vs control HepG2, RNA-seq
# Protocol: The quality and concentration of RNA were examined by MOPS RNA electrophoresis and Eppendorf BioSpectrometer. The transcriptome analysis was performed by BGI-Wuhan China. The RNA-seq dataset of this study is accessible in the Gene Expression Omnibus (GEO) with an access number of GSE276099. The sequence library for each sample was prepared using the BGISEQ-500 platform with a 50-bp single-end (SE50) format. […]2.2.1) was used to align the clean reads to the reference genome and alignment of the clean reads to the reference genes was carried out using Bowtie2 (v2.4.5) ([Langmead and Salzberg, 2012]; [Kim et al., 2015]). Gene expression levels were calculated by RSEM (v1.3.1) ([Li and Dewey, 2011]). Analysis of differential gene expression was performed using edgeR in the Bioconductor software package ([Robinson et al., 2010]). Using a standard protocol, the RNA samples were also examined by reverse transcription and quantitative polymerase chain reaction (RT-qPCR). In brief, for reverse transcription, total RNA (1 μg) and gDNA wiper Mix were incubated at 42°C for 2 min. The samples were immediately incubated with a master mix containing 10 pmol/μL of poly (dT) primers at 37°C for 15 min and 85°C for 5 s. To detect the expression of specific genes by qPCR analysis, gene-specific primers (shown in Supplementary Table S1) were mixed with the ChamQ Universal SYBER qPCR Master Mix and the reaction was conducted using the Roche Lightcycler 480. The GAPDH value was used to normalize the results of each gene. The RNA-seq data of BCP-treated HepG2 cells were screened for DEGs. Gene symbols were turned into Enterz ID using the org.Hs.eg.db Bio-conductor R package. The cluster profiler (v4.6.2) package was used to perform the Kyoto Encyclopedia of Genes and Genomes (KEGG) and Gene Ontology (GO) enrichment analyses ([Wu et al., 2021]). Following the Transcript per million (TPM) data of the dataset, the line chart, and heatmap were plotted using ggplot2 and pheatmap R packages, respectively.
smiles,measurement,value
"C=C1CC/C=C(\C)CC[C@@H]2[C@@H]1CC2(C)C [BCP, β-caryophyllene]",ABCA4 change,Up
same,ABCA4 logFC,1.08
same,ABHD16B change,Down
same,ABHD16B logFC,-0.7624
same,ACCS change,Up
same,ACCS logFC,0.7756
same,ADAT3 change,Down
same,ADAT3 logFC,-0.6489
same,ADGRE1 change,Down
same,ADGRE1 logFC,-1.049
same,ADORA1 change,Down
same,ADORA1 logFC,-0.951
same,ADORA2A change,Down
same,ADORA2A logFC,-0.7747
same,ADRA2C change,Down
same,ADRA2C logFC,-0.8257
same,AGT change,Up
same,AGT logFC,0.6624
same,AKR1C1 change,Down
same,AKR1C1 logFC,-0.9841
same,ALOX12B change,Down
same,ALOX12B logFC,-0.7891
same,ALOXE3 change,Down
same,ALOXE3 logFC,-1.101
same,ANK1 change,Down
same,ANK1 logFC,-0.6258
same,ANK2 change,Up
same,ANK2 logFC,0.6135
same,ANKRD63 change,Down
same,ANKRD63 logFC,-1.109
same,ANO9 change,Up
same,ANO9 logFC,0.6598
same,AOX1 change,Down
same,AOX1 logFC,-0.7887
same,ARHGAP25 change,Down
same,ARHGAP25 logFC,-0.9496
same,ARTN change,Down
same,ARTN logFC,-0.6893
same,B3GNT4 change,Down
same,B3GNT4 logFC,-0.8549
same,BEST1 change,Up
same,BEST1 logFC,0.7297
same,BOC change,Down
same,BOC logFC,-1.001
same,BOLA2B change,Down
same,BOLA2B logFC,-1.579
same,BORCS8-MEF2B change,Up
same,BORCS8-MEF2B logFC,0.7383
same,C4orf50 change,Down
same,C4orf50 logFC,-0.84
same,C7orf31 change,Up
same,C7orf31 logFC,0.8499
same,C14orf132 change,Down
same,C14orf132 logFC,-0.9885
same,C15orf62 change,Down
same,C15orf62 logFC,-0.8151
same,CACNA1D change,Up
same,CACNA1D logFC,0.899
same,CACNA1E change,Down
same,CACNA1E logFC,-0.8241
same,CAMK2N2 change,Down
same,CAMK2N2 logFC,-0.8129
same,CARMIL2 change,Down
same,CARMIL2 logFC,-0.818
same,CDC25C change,Up
same,CDC25C logFC,0.5857
same,CENPE change,Up
same,CENPE logFC,0.6854
same,CERS4 change,Down
same,CERS4 logFC,-0.7861
same,CHST6 change,Down
same,CHST6 logFC,-0.6638
same,CILP2 change,Down
same,CILP2 logFC,-0.9152
same,CLEC7A change,Down
same,CLEC7A logFC,-1.627
same,CLGN change,Up
same,CLGN logFC,0.5838
same,COL9A2 change,Up
same,COL9A2 logFC,0.6974
same,CPAMD8 change,Up
same,CPAMD8 logFC,0.9195
same,CRYBG1 change,Down
same,CRYBG1 logFC,-0.6404
same,CSF1R change,Up
same,CSF1R logFC,1.132
same,CTNNBIP1 change,Up
same,CTNNBIP1 logFC,0.608
same,CYP24A1 change,Up
same,CYP24A1 logFC,0.7733
same,CYP39A1 change,Down
same,CYP39A1 logFC,-0.966
same,D2HGDH change,Up
same,D2HGDH logFC,0.7244
same,DEPTOR change,Down
same,DEPTOR logFC,-0.8053
same,DOK7 change,Up
same,DOK7 logFC,0.6123
same,DPF1 change,Down
same,DPF1 logFC,-0.7852
same,DUSP18 change,Down
same,DUSP18 logFC,-1.0326
same,ELOVL6 change,Down
same,ELOVL6 logFC,-0.6915
same,EN2 change,Down
same,EN2 logFC,-0.8276
same,ENPP1 change,Up
same,ENPP1 logFC,0.6168
same,EPHA7 change,Up
same,EPHA7 logFC,0.6078
same,ERVV-2 change,Up
same,ERVV-2 logFC,0.6706
same,FAAH2 change,Up
same,FAAH2 logFC,0.6861
same,FAM72A change,Up
same,FAM72A logFC,0.7318
same,FAM167B change,Down
same,FAM167B logFC,-1.112
same,FAM222A change,Down
same,FAM222A logFC,-0.6769
same,FAR2 change,Down
same,FAR2 logFC,-0.7201
same,FBXL22 change,Down
same,FBXL22 logFC,-1.204
same,FDXACB1 change,Down
same,FDXACB1 logFC,-1.018
same,FES change,Down
same,FES logFC,-1.129
same,FGF11 change,Down
same,FGF11 logFC,-0.6148
same,FGF12 change,Up
same,FGF12 logFC,0.873
same,FHIT change,Up
same,FHIT logFC,0.955
same,FICD change,Up
same,FICD logFC,0.637
same,FUT3 change,Down
same,FUT3 logFC,-0.9413
same,GBP4 change,Down
same,GBP4 logFC,-1.639
same,GGT2 change,Up
same,GGT2 logFC,0.9035
same,GJD3 change,Down
same,GJD3 logFC,-0.6605
same,GPD1 change,Up
same,GPD1 logFC,0.9345
same,GPR3 change,Down
same,GPR3 logFC,-1.067
same,GPR158 change,Up
same,GPR158 logFC,0.961
same,GRIP2 change,Down
same,GRIP2 logFC,-0.6933
same,H3C6 change,Down
same,H3C6 logFC,-0.6656
same,H4C8 change,Down
same,H4C8 logFC,-0.9939
same,HBA1 change,Down
same,HBA1 logFC,-0.7699
same,HPD change,Up
same,HPD logFC,0.6168
same,HPGD change,Down
same,HPGD logFC,-0.5852
same,IFIT1 change,Down
same,IFIT1 logFC,-0.7944
same,IFIT2 change,Down
same,IFIT2 logFC,-0.7214
same,IL7R change,Down
same,IL7R logFC,-0.8033
same,IMMP2L change,Up
same,IMMP2L logFC,0.6542
same,IQCG change,Up
same,IQCG logFC,0.9618
same,ISYNA1 change,Down
same,ISYNA1 logFC,-1.197
same,JMJD7-PLA2G4B change,Up
same,JMJD7-PLA2G4B logFC,0.8598
same,KCP change,Up
same,KCP logFC,1.479
same,KHDC1 change,Down
same,KHDC1 logFC,-0.6694
same,KRT34 change,Up
same,KRT34 logFC,0.7278
same,LOC100133315 change,Up
same,LOC100133315 logFC,0.7126
same,LOC102724200 change,Up
same,LOC102724200 logFC,1.529
same,LOC102724788 change,Up
same,LOC102724788 logFC,0.903
same,LOC107984638 change,Down
same,LOC107984638 logFC,-1.075
same,LRRC56 change,Down
same,LRRC56 logFC,-0.591
same,LRRK2 change,Down
same,LRRK2 logFC,-0.8118
same,MAST4 change,Down
same,MAST4 logFC,-0.6435
same,MCTP2 change,Up
same,MCTP2 logFC,0.7514
same,MORN4 change,Up
same,MORN4 logFC,0.6216
same,MVB12B change,Up
same,MVB12B logFC,0.6743
same,MXRA8 change,Down
same,MXRA8 logFC,-0.6329
same,MYB change,Down
same,MYB logFC,-0.6747
same,MYH14 change,Up
same,MYH14 logFC,0.8331
same,MYPN change,Up
same,MYPN logFC,0.6564
same,NCF2 change,Down
same,NCF2 logFC,-1.214
same,NEBL change,Up
same,NEBL logFC,0.5931
same,NECAB2 change,Up
same,NECAB2 logFC,0.9799
same,NEIL3 change,Up
same,NEIL3 logFC,0.6475
same,NEK11 change,Up
same,NEK11 logFC,0.7755
same,NFE2 change,Down
same,NFE2 logFC,-0.6303
same,NPHS1 change,Up
same,NPHS1 logFC,1.189
same,NPIPA3 change,Down
same,NPIPA3 logFC,-0.8968
same,NPY4R change,Up
same,NPY4R logFC,0.7533
same,NR5A2 change,Down
same,NR5A2 logFC,-0.6198
same,NR6A1 change,Down
same,NR6A1 logFC,-0.7194
same,NYAP1 change,Down
same,NYAP1 logFC,-0.7161
